Assay results reported in US10774047B2 (THE TRUSTEES OF THE UNIVERSITY OF PENNSYLVANIA, priority 2015, dated 2020).
Entries after “also recorded” stand apart in the source; their conditions may differ.

How the values were obtained:
451Lu (melanoma) cells = test: Bafilomycin clamp experiment (autophagic flux); assay type: cell-based; conditions: 3 μM, with or without bafilomycin-A1, 24 hours
G43 cells [1] = test: G43 KPC pancreatic cancer syngeneic model; assay type: in vivo, C57BL/6 mice; conditions: gemcitabine 120 mg/kg i.p. once; DQ661 4 mg/kg i.p. 2 days on 3 days off
Method: FIG. 6: DQ661 potentiates in vivo activity of gemcitabine in KPC pancreatic cancer syngeneic model. (A) 4664 and G43 cells were treated with gemcitabine (72 hr, 3-30 nM). MTT was subsequently added and cell viability was determined by standardizing absorbance to control wells. (B) G43 cells were treated chronically for 2 weeks with gemcitabine (3-30 nM) in the presence or absence of DQ661 (30-300 nM) in colony formation assays. Cells were subsequently stained with crystal violet and imaged. (C) A schematic for how mice were treated in (D). G43 cells were injected into C57BL/6 mice (2×10^6 cells/mouse. Once palpable, mice were treated with vehicle (water, PBS), gemcitabine (120 mg/kg, i.p., once at day 6), DQ661 (4 mg/kg, i.p., starting on day 7 according to the regimen of 2 days on treatment followed by 3 days off treatment) or a combination of gemcitabine and DQ661. (D) Average tumor volumes for each treatment arm are shown. Each point represents the mean of N=8 mice per treatment arm and the error bars represent s.e. (E) Tumor growth rate from (D).
Five to seven-week old NOD-scid gamma (NSG) mice (Jackson Laboratory) were used for xenograft studies with the 1205Lu melanoma cell line. […] Perpendicular tumor diameters were measured sing electronic calipers and volume was calculated leveraging the formula L×W^2×0.5, where L is the longest dimension and W is the perpendicular dimension. […]

A375P cells = test: Galectin-3 punctae assay (lysosomal membrane permeabilization); assay type: cell-based; conditions: 6 hours (LLOMe 3 hr, 2 mM)
Method: FIG. 3: Central nitrogen methylation status dictates DNA damage versus lysosomal membrane permeability. […] Cells were imaged with fluorescent microscopy, phospho-H2AX+ cells were scored using ImageJ software analysis and quantified to the right. (B) A375P cells were treated identical to the conditions in (A), with the addition of the positive control LLoMe (3 hr, 2 mM). Cells were subsequently stained with galectin-3 and imaged with fluorescent microscopy. The formation of galectin-3 punctae, which signify lysosomal membrane permeabilization, are pointed out with yellow arrows.
When lysosomes are healthy, galectin-3 is uniformly dispersed throughout the cell. However, when the lysosome is damaged, galectin-3 rapidly localizes to the site of damaged lysosomes, appearing as punctae and marking individual leaky lysosomes.

mTORC1 [2] = test: mTOR / LAMP2 co-localization imaging; conditions: A375P cells, 6 hours, 3 μM
[3] = Tolerability in 1205Lu xenograft-bearing mice; assay type: in vivo
Method: (§1) FIG. 5: DQ661 has significant single-agent in vivo activity in melanoma xenograft model. […]. Mice were randomly split into 4 arms and treated with vehicle control (water, i.p.), quinacrine (8 mg/kg, i.p.), DQ660 (8 mg/kg, i.p.) or DQ661 (8 mg/kg, i.p.). Treatments were given as shown by the black arrows, following a regimen of 2 days on treatment followed by 2 days off treatment. (C) Representative electron micrographs from melanoma xenograft tumors harvested after 2 days of treatment according to (B). (D) Average tumor volumes for each treatment arm are shown. Each point represents the mean of N=8 mice per treatment arm and the error bars represent standard error (s.e.) (C) Representative EM for tumors treated in each arm. (E) A schematic for how mice were treated in (F). […]. Mice were randomly split into 3 arms and treated with water (i.p.), DQ661 (2 mg/kg, i.p.) or DQ661 (4 mg/kg, i.p.). Treatments were give as shown by the black arrows, following a regimen of 2 days on treatment followed by 2 days […]. Tumor volume is shown. Each point represents the mean of N=8 mice per treatment arm and the error bars represent s.e. (G) Average tumor growth rate for each treatment arm are shown. (H) Protein lysate was harvested from mouse tumors at the end of the experiment and immunoblotted for LC3B, phospho-4E-BP1 T37_T65, phospho-4E-BP1 S240_S244 and Actin. Quantification of proteins standardized to control mice levels are shown to the right.
(§2) Five to seven-week old NOD-scid gamma (NSG) mice (Jackson Laboratory) were used for xenograft studies with the 1205Lu melanoma cell line. Tumor generation, tumor measurement and tumor harvesting performed as previously described (ref). For the pancreatic cancer model, five to seven-week old C57BL/6 mice (Jackson Laboratory) and maintained under pathogen-free conditions. 2×10^6 G43 cells were subcutaneously injected with an equal volume of matrigel (BD) over the right flank […] and tumors became palpable after 5-6 days. Mice were enrolled on day 6 and given Gemcitabine (120 mg/kg, i.p.). DQ661 (4 mg/kg, i.p.) was given on days 7, 8, 12, 13, 17 and 18. Perpendicular tumor diameters were measured sing electronic calipers and volume was calculated leveraging the formula L×W^2×0.5, where L is the longest dimension and W is the perpendicular dimension. All animal experiments were performed in accordance to the protocols approved by the Institute of Animal Care and Use Committee of the University of Pennsylvania.
. After 1-2 weeks, tumors were palpable and mice were treated with vehicle control (water), quinacrine (8 mg/kg), DQ660 (8 mg/kg) or DQ661 (8 mg/kg) i.p (FIG. 5A). […]. […]

[4] = test system: 1205Lu melanoma xenografts; test: 1205Lu melanoma xenograft model; assay type: in vivo, NSG mice
Method: as §1, §2
. After 1-2 weeks, tumors were palpable and mice were treated with vehicle control (water), quinacrine (8 mg/kg), DQ660 (8 mg/kg) or DQ661 (8 mg/kg) i.p (FIG. 5A). […]. Therefore another 1205Lu xenograft experiment was performed with mice treated with either vehicle control (water, n=6) or DQ661 (2 or 4 mg/kg, n=6) for a period of 14 days (FIG. 5e, 5F).

[5] = test system: ATG5 WT and ATG5-null MEFs; test: Long-term colony formation in ATG5+/+ and ATG5-/- MEFs; assay type: cell-based; conditions: 2 weeks, 10-300 nM
Method: (G) Long-term colony formation assays were performed with ATG5+/+ and ATG5−/− MEFs treated with DQ661 (2 weeks, 10-300 nM). Cells were subsequently stained with crystal violet and imaged.
The clonogenic assay was performed as previously described. Briefly, cells were suspended in appropriate culture media, and plated in 6-well plates (2×10^3 cells/well). Medium was changed and drug treatment refreshed every 3-4 days for 2 weeks. Cells were subsequently stained with crystal violet and quantified.

mTORC1 [6] = test: Immunoblot of mTORC1 signaling and LC3B, panel of lysosomal inhibitors; conditions: A375P cells
autophagy = conditions: background; cited from earlier work
G43 cells [7] = test: MTT viability of 4664 and G43 KPC pancreatic cancer cells; assay type: cell-based, mouse; conditions: 72 hr
Method: FIG. 6: DQ661 potentiates in vivo activity of gemcitabine in KPC pancreatic cancer syngeneic model. (A) 4664 and G43 cells were treated with gemcitabine (72 hr, 3-30 nM). MTT was subsequently added and cell viability was determined by standardizing absorbance to control wells. (B) G43 cells were treated chronically for 2 weeks with gemcitabine (3-30 nM) in the presence or absence of DQ661 (30-300 nM) in colony formation assays. Cells were subsequently stained with crystal violet and imaged. (C) A schematic for how mice were treated in (D). […]
For MTT assays, cells were plated in 96-well plates (2,000 cells/well), allowed to adhere overnight, and subsequently treated in triplicate for 72 hours. MTT reagent (Roche) was applied, cells were solubilized and absorbance was read at 570 nm, with background subtraction at 690 nm. […] Cells were subsequently stained with crystal violet and quantified. […]

Row | Structure (SMILES) | effect on autophagic flux (LC3II/LC3I ratio with vs without bafilomycin-A1) (451Lu (melanoma) cells) | tumor growth (G43 cells [1]) | galectin-3 staining pattern (A375P cells) | mTOR and lysosomal (LAMP2) co-localization (mTORC1 [2]) | clinical outcome by day 7 ([3]; 8 mg/kg i.p.) | histological analysis of the intestines and liver ([3]; 8 mg/kg i.p.) | weight loss of mice ([3]; 8 mg/kg i.p.) | mice weight ([3]; 2 or 4 mg/kg i.p., 14 days) | tumor growth ([4]; 8 mg/kg i.p., 2 days on / 2 days off) | autophagy in tumors (electron microscopy) ([4]; 8 mg/kg i.p., tumors harvested after 2 days of treatment) | tumor growth rate ([4]; 2 or 4 mg/kg i.p., 14 days) | tumor volume and tumor weight ([4]; 2 or 4 mg/kg i.p., 14 days) | Western blotting of tumor lysate (LC3, p62, phospho-4EBP1, phospho-S6) ([4]; 2 or 4 mg/kg i.p., end of experiment) | cytotoxicity in ATG5 WT vs ATG5-null MEFs [5] | autophagy inhibition (accumulation of LC3II/LC3I levels) among lysosomal inhibitors (mTORC1 [6]; 3 μM) | S6K (and 4E-BP1) phosphorylation (mTORC1 [6]; DQ661 3 μM, PET 10 μM, Bafilomycin A1 100 nM) | mTORC1 activity (Western blotting) (mTORC1 [6]; DQ661 3 μM, Pepstatin A 10 μG/mL, Siramesine 8 μM) | concentrations required to inhibit autophagy (autophagy) | sensitivity of G43 cells relative to parental 4664 cells (G43 cells [7])
1 | COc1ccc2nc3cc(Cl)ccc3c(NCCCCCCN(C)CCCCCCNc3c4ccc(Cl)cc4nc4ccc(OC)cc34)c2c1 [DQ 661] | autophagy inhibitors | significantly impaired | punctate distribution of galectin-3 | loss of mTOR and lysosomal co-localization | all mice were euthanized due to lethargy and bowel distension | Paneth cell dysfunction | greater than 10% | without significantly effect mice weight | inhibited tumor growth to the greatest extent | inhibited autophagy as seen by electron microscopy of mouse tumors | significantly slower rates of growth | significant reduction in tumor volume and tumor weight compared to control mice | concurrent in vivo autophagy inhibition and mTORC1 inhibition | equal cytotoxicity in ATG5 WT and ATG5-null MEFs; also recorded: equivalent activity | greatest ability to inhibit autophagy among the entire panel of lysosomal inhibitors | inhibit S6K and 4E-BP1 to a similar degree as the classical control of amino acid starvation | potently inhibits mTORC1 activity |  | 
2 | CCN(CCO)CCCC(C)Nc1ccnc2cc(Cl)ccc12 (centres unmarked) [HCQ, hydroxychloroquine] |  |  |  |  |  |  |  |  |  |  |  |  |  |  |  |  |  | High micromolar concentrations | 
3 | Nc1ccn([C@@H]2O[C@H](CO)[C@@H](O)C2(F)F)c(=O)n1 [gemcitabine, reference compound] |  | significantly impaired |  |  |  |  |  |  |  |  |  |  |  |  |  |  |  |  | resistant to gemcitabine, relative to the parental treatment naïve 4664 cells
